Measured values reported in patent US20230257372A1 (CHONG KUN DANG PHARMACEUTICAL CORP., priority 2020, published 2023).

Experiments:
[1] = biological target: T1, human recombinant HDAC6 (Homo sapiens, UniProt Q9UBN7); assay: HDAC6 enzyme activity inhibition (HDAC Fluorimetric Drug Discovery Kit); assay type: biochemical; details: for HDAC6 selectivity (fold): HDAC1 IC50 / HDAC6 IC50; for IC50: human recombinant HDAC6, IC50 calculated with GraphPad Prism
T1 construct: purchased Calbiochem Inc. 382180
T1 sequence (Q9UBN7 1-1215): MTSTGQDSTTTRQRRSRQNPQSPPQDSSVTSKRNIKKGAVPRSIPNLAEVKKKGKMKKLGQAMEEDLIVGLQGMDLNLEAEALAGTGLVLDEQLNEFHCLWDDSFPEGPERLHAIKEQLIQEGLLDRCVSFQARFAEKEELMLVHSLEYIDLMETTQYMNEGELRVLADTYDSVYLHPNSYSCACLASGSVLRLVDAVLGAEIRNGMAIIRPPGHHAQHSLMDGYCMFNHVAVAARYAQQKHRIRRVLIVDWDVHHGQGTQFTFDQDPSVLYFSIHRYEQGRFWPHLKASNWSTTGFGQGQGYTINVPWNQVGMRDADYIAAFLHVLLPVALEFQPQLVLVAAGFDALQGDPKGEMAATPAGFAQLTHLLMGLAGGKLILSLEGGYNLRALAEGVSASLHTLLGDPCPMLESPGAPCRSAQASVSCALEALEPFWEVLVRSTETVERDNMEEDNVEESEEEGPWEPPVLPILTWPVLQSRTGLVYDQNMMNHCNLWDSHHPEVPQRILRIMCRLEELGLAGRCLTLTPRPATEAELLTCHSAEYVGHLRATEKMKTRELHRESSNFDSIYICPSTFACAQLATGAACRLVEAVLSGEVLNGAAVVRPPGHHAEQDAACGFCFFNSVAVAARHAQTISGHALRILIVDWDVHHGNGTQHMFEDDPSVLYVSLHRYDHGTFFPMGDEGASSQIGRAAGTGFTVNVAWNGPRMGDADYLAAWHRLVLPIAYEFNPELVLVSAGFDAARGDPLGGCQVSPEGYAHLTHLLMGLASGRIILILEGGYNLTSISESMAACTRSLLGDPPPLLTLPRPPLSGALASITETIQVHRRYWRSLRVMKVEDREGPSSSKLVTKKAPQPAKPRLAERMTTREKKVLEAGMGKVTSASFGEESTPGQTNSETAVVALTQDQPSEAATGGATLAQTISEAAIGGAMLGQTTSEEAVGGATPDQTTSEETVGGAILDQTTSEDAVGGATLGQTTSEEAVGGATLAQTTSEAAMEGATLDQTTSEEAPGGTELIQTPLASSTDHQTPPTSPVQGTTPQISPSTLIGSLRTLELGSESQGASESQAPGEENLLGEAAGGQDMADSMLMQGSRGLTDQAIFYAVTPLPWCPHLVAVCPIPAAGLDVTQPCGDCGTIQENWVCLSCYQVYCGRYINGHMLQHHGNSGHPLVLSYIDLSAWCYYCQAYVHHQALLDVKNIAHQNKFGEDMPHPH
Procedure, shortened: (§1)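 Five-fold compound dilutions incubated with […] recombinant enzyme and 10 μM fluorogenic Fluor de Lys substrate, 60 min at 30° C. Fluor de Lys Developer II then added for 30 min to generate the fluorescent read-out.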

[2] = test system: hippocampal neurons from a Sprague-Dawley (SD) rat fetus; assay: Effect of HDAC6-specific inhibitor on axonal transport of mitochondria in amyloid-beta treated neurons; assay type: cell-based; details: transport velocity of mitochondria in neuronal axon after normalization; vehicle = 100%, amyloid beta treatment group = 0%; compound treatment for three hours
Method: On the 17th to 18th days (E17-18) of insemination, the hippocampal neurons from a Sprague-Dawley (SD) rat fetus were cultured in a culture container for imaging, which had been coated with extracellular matrix, and were treated with amyloid-beta protein fragments at a concentration of […]. In 24 hours later, the neurons were treated with the compound on the 8th day of in vitro culture. In three hours later, the resulting neurons were treated with MitoTracker Red CMXRos (Life Technologies, NY, USA) for last five minutes to stain mitochondria. An image on the axonal transport of stained neuron mitochondria was taken with a confocal microscope (Leica SP8; Leica microsystems, UK) at an interval of one second for one minute to measure a transport velocity of each mitochondria per second with an IMARIS analysis program (BITPLANE, Zurich, Switzerland).
In result, after setting a section, in which the group treated with amyloid-beta had shown a significant decrease in the transport velocity of mitochondria compared to a vehicle, it was confirmed for 1,3,4-oxadiazole triazol derivative compounds of the present invention, stereoisomers thereof or pharmaceutically acceptable salts thereof that the vehicles is represented as 100%, the amyloid beta treatment group is represented as 0%, a velocity distribution of the compound after normalization is represented as *, 0%˜50%; **, 50%˜100%; ***, >100%.

[3] = biological target: T2, human recombinant HDAC1 (Homo sapiens, UniProt Q13547); assay: HDAC1 enzyme activity inhibition (HDAC Fluorimetric Drug Discovery Kit); assay type: biochemical; details: human recombinant HDAC1; IC50 calculated with GraphPad Prism; read-out: HDAC1
T2 construct: purchased Enzo Life Science, Inc. BML-SE456
T2 sequence (Q13547 whole entry): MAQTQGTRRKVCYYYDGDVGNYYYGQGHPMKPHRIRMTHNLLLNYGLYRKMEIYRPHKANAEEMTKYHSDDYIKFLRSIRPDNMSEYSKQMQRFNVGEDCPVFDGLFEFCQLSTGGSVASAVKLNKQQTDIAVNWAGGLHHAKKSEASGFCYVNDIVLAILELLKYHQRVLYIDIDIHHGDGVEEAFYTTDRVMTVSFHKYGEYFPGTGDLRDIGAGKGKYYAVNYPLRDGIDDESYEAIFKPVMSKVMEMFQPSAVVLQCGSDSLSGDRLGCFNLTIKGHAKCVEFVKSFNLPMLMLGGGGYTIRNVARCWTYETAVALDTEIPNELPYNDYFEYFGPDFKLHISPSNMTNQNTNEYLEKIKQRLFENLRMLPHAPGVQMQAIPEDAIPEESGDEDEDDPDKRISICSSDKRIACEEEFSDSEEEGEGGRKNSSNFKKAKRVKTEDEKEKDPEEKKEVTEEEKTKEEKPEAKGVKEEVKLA
Procedure, shortened: as §1

Compound | HDAC6 selectivity (fold) [1] | IC50 [1] | Velocity distribution (%) [2] | IC50 [3]
FC(F)c1nnc(-c2ccc(Cn3cc(-c4cccc(NC5CCCCC5)c4)nn3)nc2)o1 [Compound 3828, N-cyclohexyl-3-(1-((5-(5-(difluoromethyl)-1,3,4-oxadiazol-2-yl)pyridin-2-yl)methyl)-1H-1,2,3-triazol-4-yl)aniline] | 1196 fold | 41.8 nM | * (*, 0%˜50%) | > 50000 nM
FC(F)c1nnc(-c2ccc(Cn3cc(-c4ccc5cc[nH]c5c4)nn3)nc2)o1 [Compound 3838, 2-(6-((4-(1H-indol-6-yl)-1H-1,2,3-triazol-1-yl)methyl)pyridin-3-yl)-5-(difluoromethyl)-1,3,4-oxadiazole] | 7142 fold | 7 nM | * (*, 0%˜50%) | > 50000 nM
FC(F)c1nnc(-c2ccc(Cn3cc(-c4cccc5[nH]ccc45)nn3)nc2)o1 [Compound 3839, 2-(6-((4-(1H-indol-4-yl)-1H-1,2,3-triazol-1-yl)methyl)pyridin-3-yl)-5-(difluoromethyl)-1,3,4-oxadiazole] | 6756 fold | 7.4 nM | * (*, 0%˜50%) | > 50000 nM
FC(F)c1nnc(-c2ccc(Cn3cc(-c4ccnc5[nH]ccc45)nn3)nc2)o1 [Compound 3840, 2-(6-((4-(1H-pyrrolo[2,3-b]pyridin-4-yl)-1H-1,2,3-triazol-1-yl)methyl)pyridin-3-yl)-5-(difluoromethyl)-1,3,4-oxadiazole] | 5681 fold | 8.8 nM | ** (**, 50%˜100%) | > 50000 nM
FC(F)c1nnc(-c2ccc(Cn3cc(-c4cnc5[nH]ccc5c4)nn3)nc2)o1 [Compound 3841, 2-(6-((4-(1H-pyrrolo[2,3-b]pyridin-5-yl)-1H-1,2,3-triazol-1-yl)methyl)pyridin-3-yl)-5-(difluoromethyl)-1,3,4-oxadiazole] | 5952 fold | 8.4 nM | *** (***, >100%) | > 50000 nM
Cn1ncc2c(-c3cn(Cc4ccc(-c5nnc(C(F)F)o5)cn4)nn3)cccc21 [Compound 3842, 2-(difluoromethyl)-5-(6-((4-(1-methyl-1H-indazol-4-yl)-1H-1,2,3-triazol-1-yl)methyl)pyridin-3-yl)-1,3,4-oxadiazole] | 2032 fold | 24.6 nM | ** (**, 50%˜100%) | > 50000 nM
Fc1ccccc1-c1cn(Cc2ccc(-c3nnc(C(F)F)o3)cn2)nn1 [Compound 3853, 2-(difluoromethyl)-5-(6-((4-(2-fluorophenyl)-1H-1,2,3-triazol-1-yl)methyl)pyridin-3-yl)-1,3,4-oxadiazole] | 1612 fold | 31 nM | ** (**, 50%˜100%) | > 50000 nM
Fc1cccc(-c2cn(Cc3ccc(-c4nnc(C(F)F)o4)cn3)nn2)c1 [Compound 3854, 2-(difluoromethyl)-5-(6-((4-(3-fluorophenyl)-1H-1,2,3-triazol-1-yl)methyl)pyridin-3-yl)-1,3,4-oxadiazole] | 1259 fold | 39.7 nM | *** (***, >100%) | > 50000 nM
Cc1cccc(-c2cn(Cc3ccc(-c4nnc(C(F)F)o4)cn3)nn2)c1 [Compound 3856, 2-(difluoromethyl)-5-(6-((4-(m-tolyl)-1H-1,2,3-triazol-1-yl)methyl)pyridin-3-yl)-1,3,4-oxadiazole] | 1506 fold | 33.2 nM | *** (***, >100%) | > 50000 nM
FC(F)c1nnc(-c2ccc(Cn3cc(-c4cccc(N5CCOCC5)c4)nn3)nc2)o1 [Compound 3866, 4-(3-(1-((5-(5-(difluoromethyl)-1,3,4-oxadiazol-2-yl)pyridin-2-yl)methyl)-1H-1,2,3-triazol-4-yl)phenyl)morpholin] | 2688 fold | 18.6 nM | ** (**, 50%˜100%) | > 50000 nM
CN1CCN(c2cccc(-c3cn(Cc4ccc(-c5nnc(C(F)F)o5)cn4)nn3)c2)CC1 [Compound 3867, 2-(difluoromethyl)-5-(6-((4-(3-(4-methylpiperazin-1-yl)phenyl)-1H-1,2,3-triazol-1-yl)methyl)pyridin-3-yl)-1,3,4-oxadiazole] | 1953 fold | 25.6 nM | ** (**, 50%˜100%) | > 50000 nM
FC(F)c1nnc(-c2ccc(Cn3cc(-c4ccccn4)nn3)nc2)o1 [Compound 3881, 2-(difluoromethyl)-5-(6-((4-(pyridin-2-yl)-1H-1,2,3-triazol-1-yl)methyl)pyridin-3-yl)-1,3,4-oxadiazole] | 1470 fold | 34 nM | *** (***, >100%) | > 50000 nM
FC(F)c1nnc(-c2ccc(Cn3cc(-c4cncc(Cl)c4)nn3)nc2)o1 [Compound 3883, 2-(6-((4-(5-chloropyridin-3-yl)-1H-1,2,3-triazol-1-yl)methyl)pyridin-3-yl)-5-(difluoromethyl)-1,3,4-oxadiazole] | 1474 fold | 33.9 nM | * (*, 0%˜50%) | > 50000 nM
O=C(c1cccc(-c2cn(Cc3ccc(-c4nnc(C(F)F)o4)cn3)nn2)c1)N1CCC1 [Compound 3886, Azetidin-1-yl(3-(1-((5-(5-(difluoromethyl)-1,3,4-oxadiazol-2-yl)pyridin-2-yl)methyl)-1H-1,2,3-triazol-4-yl)phenyl)methanone] | 1118 fold | 44.7 nM | * (*, 0%˜50%) | > 50000 nM
FC(F)c1nnc(-c2ccc(Cn3cc(-c4cccs4)nn3)nc2)o1 [Compound 3902, 2-(difluoromethyl)-5-(6-((4-(thiophen-2-yl)-1H-1,2,3-triazol-1-yl)methyl)pyridin-3-yl)-1,3,4-oxadiazole] | 2415 fold | 20.7 nM | *** (***, >100%) | > 50000 nM
Cn1ccc2ccc(-c3cn(Cc4ccc(-c5nnc(C(F)F)o5)cn4)nn3)cc21 [Compound 3914, 2-(difluoromethyl)-5-(6-((4-(1-methyl-1H-indol-6-yl)-1H-1,2,3-triazol-1-yl)methyl)pyridin-3-yl)-1,3,4-oxadiazole] | 1190 fold | 43.2 nM | * (*, 0%˜50%) | > 50000 nM
FC(F)c1nnc(-c2ccc(Cn3cc(-c4cccc(CN5CCOCC5)c4)nn3)nc2)o1 [Compound 3916, 4-(3-(1-((5-(5-(difluoromethyl)-1,3,4-oxadiazol-2-yl)pyridin-2-yl)methyl)-1H-1,2,3-triazol-4-yl)benzyl)morpholine] | 1754 fold | 28.5 nM | *** (***, >100%) | > 50000 nM
